Assay results from patent publication US20200038513A1, “MODULATORS OF FAK PROTEOLYSIS AND ASSOCIATED METHODS OF USE” (ARVINAS OPERATIONS, INC., priority 2018, published 2020).
Like-named read-outs stand apart in the source and are kept apart here.

Columns and labels:
[1] = Pharmacokinetics of intraperitoneal or intravenous injection in CD1 mice; assay type: in vivo; conditions: for Conc. (ng/mL) Mouse 2 / Conc. (ng/mL) Mouse 1 / Conc. (ng/mL) Mouse 3 / concentration at 0.25 h / concentration at 0.5 h / concentration at 1 h / concentration at 2 h / concentration at 4 h / concentration at 8 h / concentration at 24 h / concentration at 0.033 h / concentration at 0.083 h: CD1 mice plasma; for concentration at 0.25 h / concentration at 0.5 h / concentration at 1 h / concentration at 2 h / concentration at 4 h / concentration at 8 h / concentration at 24 h / AUC(0-t) / half-life / concentration at 0.033 h / concentration at 0.083 h: male, CD1, mouse, plasma
Method in brief: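 Male CD1 mice, 6-8 weeks old, 3 per group, dosed IV (5 s injection; 10% HP-b-CD, 40 mM sodium acetate, 40 mM NaCl, pH 4.5) or IP (5% EtOH, 5% Solutol HS15 in D5W). Serial dorsal metatarsal vein blood, terminal heart puncture; plasma analysed by LC/MS/MS after acetonitrile precipitation, calibration 1-2000 ng/mL.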

PPB = assay type: in vitro ADME; conditions: plasma
[2] = ip, 10 mg/kg, IP 10 mg/kg, read-out: Conc. (ng/mL) Mouse 1
[3] = ip, 10 mg/kg, IP 10 mg/kg, read-out: Conc. (ng/mL) Mouse 2
[4] = ip, 10 mg/kg, IP 10 mg/kg, read-out: Conc. (ng/mL) Mouse 3
[5] = ip, 10 mg/kg, IP 10 mg/kg, read-out: Mean
[6] = iv, 1 mg/kg, IV 1.0 mg/kg, read-out: Conc. (ng/mL) Mouse 1
[7] = iv, 1 mg/kg, IV 1.0 mg/kg, read-out: Conc. (ng/mL) Mouse 2
[8] = iv, 1 mg/kg, IV 1.0 mg/kg, read-out: Conc. (ng/mL) Mouse 3
[9] = iv, 1 mg/kg, IV 1.0 mg/kg, read-out: Mean

Question: Which “Conc. (ng/mL) Mouse 2” value ([1]; IP 10 mg/kg, 24 h) does the source give for Cc1ncsc1-c1ccc(CNC(=O)[C@@H]2C[C@@H](O)CN2C(=O)[C@@H](NC(=O)COCCOc2ccc(Nc3ncc(C(F)(F)F)c(NCc4cccc(N(C)S(C)(=O)=O)c4)n3)cc2)C(C)(C)C)cc1 [Compound 100, (2S,4R)-1-((S)-3,3-dimethyl-2-(2-(2-(4-((4-((3-(N-methylmethylsulfonamido)benzyl)amino)-5-(trifluoromethyl)pyrimidin-2-yl)amino)phenoxy)ethoxy)acetamido)butanoyl)-4-hydroxy-N-(4-(4-methylthiazol-5-yl)benzyl)pyrrolidine-2-carboxamide] here?
Answer: The value was “BLOQ”.

Question: And the “Conc. (ng/mL) Mouse 1” value ([1]; IV 1.0 mg/kg, 8 h)?
Answer: The value was “BLOQ”.

Question: What about the “Conc. (ng/mL) Mouse 2” value ([1]; IV 1.0 mg/kg, 8 h) of the same compound?
Answer: Its value is “BLOQ”.

Question: What about the “Conc. (ng/mL) Mouse 3” value ([1]; IV 1.0 mg/kg, 8 h) of the same compound?
Answer: Its value is “BLOQ”.

Question: And the “Conc. (ng/mL) Mouse 1” value ([1]; IV 1.0 mg/kg, 24 h)?
Answer: Its value is “BLOQ”.

Question: What about the “Conc. (ng/mL) Mouse 2” value ([1]; IV 1.0 mg/kg, 24 h) of the same compound?
Answer: Its value is “BLOQ”.

Question: What about the “Conc. (ng/mL) Mouse 3” value ([1]; IV 1.0 mg/kg, 24 h) of the same compound?
Answer: Its value is “BLOQ”.

Question: What about the concentration at 0.25 h [1, 2] of the same compound?
Answer: The concentration at 0.25 h was 252 ng/mL.

Question: And the concentration at 0.25 h [1, 3]?
Answer: The concentration at 0.25 h was 402 ng/mL.

Question: And the concentration at 0.25 h [1, 4]?
Answer: The concentration at 0.25 h was 374 ng/mL.

Question: What about the concentration at 0.25 h [1, 5] of the same compound?
Answer: Its concentration at 0.25 h is 343 ng/mL.

Question: And the concentration at 0.5 h [1, 2]?
Answer: Its concentration at 0.5 h is 362 ng/mL.

Question: What about the concentration at 0.5 h [1, 3] of the same compound?
Answer: The concentration at 0.5 h was 467 ng/mL.

Question: What about the concentration at 0.5 h [1, 4] of the same compound?
Answer: Its concentration at 0.5 h is 373 ng/mL.

Question: What about the concentration at 0.5 h [1, 5] of the same compound?
Answer: Its concentration at 0.5 h is 401 ng/mL.

Question: And the concentration at 1 h [1, 2]?
Answer: Its concentration at 1 h is 648 ng/mL.

Question: What about the concentration at 1 h [1, 3] of the same compound?
Answer: The concentration at 1 h was 1550 ng/mL.

Question: What about the concentration at 1 h [1, 4] of the same compound?
Answer: The concentration at 1 h was 2480 ng/mL.

Question: What about the concentration at 1 h [1, 5] of the same compound?
Answer: The concentration at 1 h was 1560 ng/mL.

Question: What about the concentration at 2 h [1, 2] of the same compound?
Answer: Its concentration at 2 h is 764 ng/mL.

Question: What about the concentration at 2 h [1, 3] of the same compound?
Answer: Its concentration at 2 h is 1750 ng/mL.

Question: What about the concentration at 2 h [1, 4] of the same compound?
Answer: Its concentration at 2 h is 1610 ng/mL.

Question: And the concentration at 2 h [1, 5]?
Answer: The concentration at 2 h was 1380 ng/mL.

Question: What about the concentration at 4 h [1, 2] of the same compound?
Answer: Its concentration at 4 h is 362 ng/mL.

Question: What about the concentration at 4 h [1, 3] of the same compound?
Answer: The concentration at 4 h was 625 ng/mL.

Question: And the concentration at 4 h [1, 4]?
Answer: The concentration at 4 h was 510 ng/mL.

Question: What about the concentration at 4 h [1, 5] of the same compound?
Answer: The concentration at 4 h was 499 ng/mL.

Question: What about the concentration at 8 h ([1]; ip, 10 mg/kg, IP 10 mg/kg, 8 h, read-out: Conc. (ng/mL) Mouse 1) of the same compound?
Answer: The concentration at 8 h was 95.4 ng/mL.

Question: What about the concentration at 8 h ([1]; ip, 10 mg/kg, IP 10 mg/kg, 8 h, read-out: Conc. (ng/mL) Mouse 2) of the same compound?
Answer: Its concentration at 8 h is 111 ng/mL.

Question: And the concentration at 8 h ([1]; ip, 10 mg/kg, IP 10 mg/kg, 8 h, read-out: Conc. (ng/mL) Mouse 3)?
Answer: Its concentration at 8 h is 151 ng/mL.

Question: What about the concentration at 8 h ([1]; ip, 10 mg/kg, IP 10 mg/kg, 8 h, read-out: Mean) of the same compound?
Answer: The concentration at 8 h was 119 ng/mL.

Question: What about the concentration at 24 h ([1]; ip, 10 mg/kg, IP 10 mg/kg, 24 h, read-out: Conc. (ng/mL) Mouse 1) of the same compound?
Answer: The concentration at 24 h was 1.35 ng/mL.

Question: And the concentration at 24 h ([1]; ip, 10 mg/kg, IP 10 mg/kg, 24 h, read-out: Conc. (ng/mL) Mouse 3)?
Answer: The concentration at 24 h was 1.56 ng/mL.

Question: And the concentration at 24 h ([1]; ip, 10 mg/kg, IP 10 mg/kg, 24 h, read-out: Mean)?
Answer: Its concentration at 24 h is 1.46 ng/mL.

Question: And the AUC(0-t) ([1]; ip, 10 mg/kg, read-out: AUClast (h * ng/mL) IP)?
Answer: Its AUC(0-t) is 5870 ng·h/mL.

Question: And the half-life ([1]; ip, 10 mg/kg, read-out: T ½ (h) IP (converted))?
Answer: The half-life was 2.15 h.

Question: And the concentration at 0.033 h [1, 6]?
Answer: Its concentration at 0.033 h is 1320 ng/mL.

Question: And the concentration at 0.033 h [1, 7]?
Answer: Its concentration at 0.033 h is 1390 ng/mL.

Question: And the concentration at 0.033 h [1, 8]?
Answer: The concentration at 0.033 h was 1150 ng/mL.

Question: And the concentration at 0.033 h [1, 9]?
Answer: The concentration at 0.033 h was 1290 ng/mL.

Question: And the concentration at 0.083 h [1, 6]?
Answer: The concentration at 0.083 h was 233 ng/mL.

Question: And the concentration at 0.083 h [1, 7]?
Answer: Its concentration at 0.083 h is 313 ng/mL.

Question: And the concentration at 0.083 h [1, 8]?
Answer: The concentration at 0.083 h was 205 ng/mL.

Question: And the concentration at 0.083 h [1, 9]?
Answer: The concentration at 0.083 h was 250 ng/mL.

Question: What about the concentration at 0.25 h [1, 6] of the same compound?
Answer: The concentration at 0.25 h was 34.7 ng/mL.

Question: And the concentration at 0.25 h [1, 7]?
Answer: Its concentration at 0.25 h is 48.2 ng/mL.

Question: What about the concentration at 0.25 h [1, 8] of the same compound?
Answer: The concentration at 0.25 h was 36.4 ng/mL.

Question: And the concentration at 0.25 h [1, 9]?
Answer: The concentration at 0.25 h was 39.8 ng/mL.

Question: What about the concentration at 0.5 h [1, 6] of the same compound?
Answer: Its concentration at 0.5 h is 17.4 ng/mL.

Question: And the concentration at 0.5 h [1, 7]?
Answer: The concentration at 0.5 h was 27.1 ng/mL.

Question: And the concentration at 0.5 h [1, 8]?
Answer: Its concentration at 0.5 h is 18 ng/mL.

Question: What about the concentration at 0.5 h [1, 9] of the same compound?
Answer: Its concentration at 0.5 h is 20.8 ng/mL.

Question: And the concentration at 1 h [1, 6]?
Answer: Its concentration at 1 h is 6.22 ng/mL.

Question: And the concentration at 1 h [1, 7]?
Answer: Its concentration at 1 h is 9.77 ng/mL.

Question: What about the concentration at 1 h [1, 8] of the same compound?
Answer: The concentration at 1 h was 8.79 ng/mL.

Question: What about the concentration at 1 h [1, 9] of the same compound?
Answer: The concentration at 1 h was 8.26 ng/mL.

Question: What about the concentration at 2 h [1, 6] of the same compound?
Answer: The concentration at 2 h was 3.27 ng/mL.

Question: What about the concentration at 2 h [1, 7] of the same compound?
Answer: Its concentration at 2 h is 5.86 ng/mL.

Question: What about the concentration at 2 h [1, 8] of the same compound?
Answer: Its concentration at 2 h is 3.98 ng/mL.

Question: What about the concentration at 2 h [1, 9] of the same compound?
Answer: The concentration at 2 h was 4.37 ng/mL.

Question: And the concentration at 4 h [1, 6]?
Answer: The concentration at 4 h was 1.84 ng/mL.

Question: What about the concentration at 4 h [1, 7] of the same compound?
Answer: The concentration at 4 h was 4.11 ng/mL.

Question: And the concentration at 4 h [1, 8]?
Answer: The concentration at 4 h was 2.13 ng/mL.

Question: What about the concentration at 4 h [1, 9] of the same compound?
Answer: The concentration at 4 h was 2.69 ng/mL.

Question: What about the AUC(0-t) ([1]; iv, 1 mg/kg, read-out: AUClast (h * ng/mL) IV) of the same compound?
Answer: The AUC(0-t) was 175 ng·h/mL.

Question: And the half-life ([1]; iv, 1 mg/kg, read-out: T ½ (h) IV (converted))?
Answer: Its half-life is 1.95 h.

Question: What about the fraction unbound (PPB) of the same compound?
Answer: The fraction unbound was 0.008.
